# Laboratory results reported in patent publication US20220125959A1, “PROSTATE-SPECIFIC MEMBRANE ANTIGEN (PSMA) INHIBITORS AS DIAGNOSTIC AND RADIONUCLIDE THERAPEUTIC AGENTS” (FIVE ELEVEN PHARMA INC., priority 2019, published 2022).
# Legend:
# [1] = tested on: PC3-PIP (PSMA positive) and PC-3 tumors (PSMA negative); assay: Biodistribution of [68Ga]4 in tumor bearing nude mice; format: in vivo, CD-1 male nude mice
# Procedure: (§1) ^68Ga labeling: To 15 nmole ligand 4 (1 mg/mL DMSO) were added 20 μL of 2.0 N NaOAc, 500 μL ^68Ga-solution (2.25 mCi). The reaction was heated in a heating block at 90° C. for 10 minutes in a 3 mL closed vial. After cooling, the sample was analyzed by HPLC (HPLC: Eclise XDB C18 150×4.6 mm, gradient, 2 mL/min; A: 0.1% TFA in water; B: 0.1% TFA in ACN: 0-2 min 100% A; 2-4 min: from 0% to 100% B; 4-9 min: 100% B; 9-10 min: from 100% to 0% B). Radiochemical purity of [^68Ga]4 was >99% RCP (FIG. 1) and injected doses were stable at 2 hr after formulation.
# For iv injection 150 μL of labeled solution was diluted with saline to 3 mL. Mice were injected with 150 μL of formulated dose. Injected radioactivity was 19-28 μCi and PSMA ligand amount was constant at 0.2 nmole/mouse.
# Biodistribution of [^68Ga]4, [^177Lu]4 and [^177Lu]7 was determined in nude mice bearing PIP PC3 (PSMA positive) and PC3 (PSMA negative) tumors on the left and right shoulder, respectively, over a period of 192 h (Table 3a, 3b and 3c). […] The uptake in PC3 tumors (PSMA negative) of both ligands, [^177Lu]4 and [^177Lu]7, was clearly much lower than those of PC-3 PIP tumors (PSMA positive).
# [2] = Stability of injected doses after formulation; format: physicochemical; details: at 2 hr after formulation
# Procedure: as §1
# ^177Lu labeling: To 10 μg ligand (1 mg/mL DMSO) were added 15 μL of 2.0 N NaOAc, 400 μL 0.05 N HCl, and 20 μL ^177Lu-solution (780 μCi (Capintec setting 450 (reading×10)). The reaction was heated with a heating block at 95° C. for 1 hour in a 3 mL closed vial. After cooling, the sample was analyzed by HPLC (HPLC: Eclipse XDB-C18 150×4.6 mm, gradient, 1 mL/min; A: 0.1% TFA in water; B: 0.1% TFA in ACN: 0-4 min A/B 85/15%; 4-11 min: from 85/15 to 30/70%; 11-14 min: from 30/70% to 85/15%). Radiochemical purity of [^177Lu]4 (FIG. 2) and [^177Lu]7 was >98% and injected doses were stable at 48 hr after formulation.
# For iv injection 150 μL of labeled solution was diluted with saline to 3.75mL. Mice were injected with 150 μL of formulated dose. Injected radioactivity was 100 μCi and PSMA ligand amount was constant at 0.72 nmole/mouse.
structure (smiles),measurement,setting,value
O=C(O)CCC(C(=O)O)N1CCN(CC(=O)O)CCN(C(CCC(=O)NCC(=O)N[C@@H](Cc2ccc(OCC(=O)N[C@@H](Cc3ccccc3)C(=O)NCCCC[C@H](NC(=O)N[C@@H](CCC(=O)O)C(=O)O)C(=O)O)cc2)C(=O)O)C(=O)O)CCN(CC(=O)O)CC1.[68Ga] (some centres unmarked) [[^68Ga]4],Biodistribution: Blood,[1]; 30 min,1.22 ± 0.06 % dose/g
same,Biodistribution: Bone,[1]; 30 min,0.35 ± 0.01 % dose/g
same,Biodistribution: Brain,[1]; 30 min,0.04 ± 0.01 % dose/g
same,Biodistribution: Heart,[1]; 30 min,0.75 ± 0.12 % dose/g
same,Biodistribution: Intestine,[1]; 30 min,0.48 ± 0.12 % dose/g
same,Biodistribution: Kidney,[1]; 30 min,137.36 ± 12.92 % dose/g
same,Biodistribution: Liver,[1]; 30 min,3.23 ± 0.31 % dose/g
same,Biodistribution: Lung,[1]; 30 min,2.46 ± 0.37 % dose/g
same,Biodistribution: Muscle,[1]; 30 min,0.51 ± 0.07 % dose/g
same,Biodistribution: PC3-PSMA- tumor,[1]; 30 min,1.59 ± 0.27 % dose/g
same,Biodistribution: PIP-PSMA+ tumor,[1]; 30 min,12.88 ± 2.08 % dose/g
same,Biodistribution: Pancreas,[1]; 30 min,1.57 ± 0.93 % dose/g
same,Biodistribution: Skin,[1]; 30 min,1.71 ± 0.22 % dose/g
same,Biodistribution: Spleen,[1]; 30 min,7.19 ± 1.55 % dose/g
same,Biodistribution: Stomach,[1]; 30 min,0.44 ± 0.28 % dose/g
same,Biodistribution: Blood,[1]; 1 hr,0.65 ± 0.08 % dose/g
same,Biodistribution: Bone,[1]; 1 hr,0.17 ± 0.01 % dose/g
same,Biodistribution: Brain,[1]; 1 hr,0.03 ± 0.00 % dose/g
same,Biodistribution: Heart,[1]; 1 hr,0.43 ± 0.06 % dose/g
same,Biodistribution: Intestine,[1]; 1 hr,0.44 ± 0.13 % dose/g
same,Biodistribution: Kidney,[1]; 1 hr,166.31 ± 18.62 % dose/g
same,Biodistribution: Liver,[1]; 1 hr,2.87 ± 0.30 % dose/g
same,Biodistribution: Lung,[1]; 1 hr,1.52 ± 0.28 % dose/g
same,Biodistribution: Muscle,[1]; 1 hr,0.21 ± 0.05 % dose/g
same,Biodistribution: PC3-PSMA- tumor,[1]; 1 hr,1.14 ± 0.25 % dose/g
same,Biodistribution: PIP-PSMA+ tumor,[1]; 1 hr,13.86 ± 1.54 % dose/g
same,Biodistribution: Pancreas,[1]; 1 hr,0.75 ± 0.13 % dose/g
same,Biodistribution: Skin,[1]; 1 hr,0.64 ± 0.26 % dose/g
same,Biodistribution: Spleen,[1]; 1 hr,4.60 ± 1.80 % dose/g
same,Biodistribution: Stomach,[1]; 1 hr,0.34 ± 0.19 % dose/g
same,Biodistribution: Blood,[1]; 2 hr,0.53 ± 0.11 % dose/g
same,Biodistribution: Bone,[1]; 2 hr,0.19 ± 0.03 % dose/g
same,Biodistribution: Brain,[1]; 2 hr,0.03 ± 0.00 % dose/g
same,Biodistribution: Heart,[1]; 2 hr,0.25 ± 0.04 % dose/g
same,Biodistribution: Intestine,[1]; 2 hr,0.38 ± 0.04 % dose/g
same,Biodistribution: Kidney,[1]; 2 hr,116.41 ± 51.94 % dose/g
same,Biodistribution: Liver,[1]; 2 hr,2.54 ± 0.16 % dose/g
same,Biodistribution: Lung,[1]; 2 hr,1.05 ± 0.08 % dose/g
same,Biodistribution: Muscle,[1]; 2 hr,0.14 ± 0.07 % dose/g
same,Biodistribution: PC3-PSMA- tumor,[1]; 2 hr,0.74 ± 0.23 % dose/g
same,Biodistribution: PIP-PSMA+ tumor,[1]; 2 hr,16.74 ± 2.75 % dose/g
same,Biodistribution: Pancreas,[1]; 2 hr,0.50 ± 0.15 % dose/g
same,Biodistribution: Skin,[1]; 2 hr,0.62 ± 0.31 % dose/g
same,Biodistribution: Spleen,[1]; 2 hr,3.41 ± 2.46 % dose/g
same,Biodistribution: Stomach,[1]; 2 hr,0.20 ± 0.09 % dose/g
same,Tumor uptake,[1]; suitable for PET imaging,excellent tumor uptake
same,Stability of injected doses,[2],stable
